Here are results for one compound from PMC6529808 (Metallomics : integrated biometal science, 2018).

The target in this assay is MhuDCH (Mycobacterium tuberculosis, UniProt P9WKH3). Format: binding. The note with it: second site (MhuD-diheme); 5 μM protein, 50 mM Tris pH 7.4, 150 mM NaCl.
MhuDCH, sequence (P9WKH3 whole entry): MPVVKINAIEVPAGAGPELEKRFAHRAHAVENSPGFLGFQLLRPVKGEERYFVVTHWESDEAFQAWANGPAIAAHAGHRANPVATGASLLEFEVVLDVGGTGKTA

`C=CC1=C(C)C2=Cc3c(C=C)c(C)c4[n]3[Fe][n]3c(c(C)c(CCC(=O)O)c3=CC3=NC(=C4)C(C)=C3CCC(=O)O)=CC1=N2` [heme] yielded a Kd2 of 3.3 ± 1.1 µM.
